According to ChEMBL document CHEMBL3351272, “Sequential synthesis of amino-1,4-naphthoquinone-appended triazoles and triazole-chromene hybrids and their antimycobacterial evaluation” (Eur J Med Chem, 2014):

The compounds below were run on Mycobacterium tuberculosis (assay: Antimycobacterial activity against Mycobacterium tuberculosis H37Rv assessed as growth inhibition by microdilution AlamarBlue broth assay).
Assay type: functional, organism-based
COc1cccc(N(Cc2cn(-c3cc4ccccc4oc3=N)nn2)C2=CC(=O)c3ccccc3C2=O)c1 gave an IC50 of 18.6 µM, an IC90 of 37.7 µM and an MIC of 50 µM. In the case of O=C1C=C(N(Cc2cn(Cc3ccccc3)nn2)c2ccc(Br)cc2)C(=O)c2ccccc21, the IC50 is reported as 28.7 µM, the IC90 is reported as 47.9 µM and the MIC is reported as 100 µM. Work on Cc1ccc(N(Cc2cn(Cc3ccccc3)nn2)C2=CC(=O)c3ccccc3C2=O)cc1 yielded an IC50 of 17 µM, an IC90 of 38.9 µM and an MIC of 50 µM. Compound N#CCn1cc(CN(C2=CC(=O)c3ccccc3C2=O)c2ccc(F)cc2)nn1 has an IC50 of 2.81 µM, an IC90 of 6.13 µM and an MIC of 15 µM. NCC[C@H](O)C(=O)N[C@@H]1C[C@H](N)[C@@H](O[C@H]2O[C@H](CN)[C@@H](O)[C@H](O)[C@H]2O)[C@H](O)[C@H]1O[C@H]1O[C@H](CO)[C@@H](O)[C@H](N)[C@H]1O [AMIKACIN] was tested, and the IC90 was 0.08 µM and the MIC was 0.16 µM. CCOC(=O)Cn1cc(CN(C2=CC(=O)c3ccccc3C2=O)c2ccc(Cl)cc2)nn1 showed an IC50 of 3.28 µM, an IC90 of 7.86 µM and an MIC of 25 µM. Compound CCOC(=O)Cn1cc(CN(C2=CC(=O)c3ccccc3C2=O)c2ccc(C)cc2)nn1 has an IC50 of 11.9 µM, an IC90 of 27.9 µM and an MIC of 50 µM. For CCc1nc(N)nc(N)c1-c1ccc(Cl)cc1 [PYRIMETHAMINE], the IC50 was 37.4 µM, the IC90 was 75 µM and the MIC was 100 µM. For CCOC(=O)Cn1cc(CN(C2=CC(=O)c3ccccc3C2=O)c2ccccc2Cl)nn1, the IC50 was 18.3 µM, the IC90 was 36.5 µM and the MIC was 50 µM. Compound N=c1oc2ccccc2cc1-n1cc(CN(C2=CC(=O)c3ccccc3C2=O)c2ccc(F)cc2)nn1 has an IC50 of 8.57 µM, an IC90 of 17.7 µM and an MIC of 25 µM. In the case of COc1cccc(N(Cc2cn(Cc3ccccc3)nn2)C2=CC(=O)c3ccccc3C2=O)c1, the IC50 is reported as 24.9 µM, the IC90 is reported as 36.4 µM and the MIC is reported as 50 µM. C=CCn1cc(CN(C2=CC(=O)c3ccccc3C2=O)c2cccc(OC)c2)nn1 showed an IC50 of 24.9 µM, an IC90 of 36.4 µM and an MIC of 50 µM. In the case of COc1cccc(N(Cc2cn(CC#N)nn2)C2=CC(=O)c3ccccc3C2=O)c1, the IC50 is reported as 16.3 µM, the IC90 is reported as 25.5 µM and the MIC is reported as 50 µM. For C=CCn1cc(CN(C2=CC(=O)c3ccccc3C2=O)c2ccccc2C)nn1, the IC50 was 15.3 µM, the IC90 was 34.3 µM and the MIC was 50 µM. Compound Cc1ccc(N(Cc2cn(-c3cc4cc(Br)ccc4oc3=N)nn2)C2=CC(=O)c3ccccc3C2=O)cc1 has an IC50 of 21.9 µM, an IC90 of 44.6 µM and an MIC of 100 µM. Cc1ccc(N(Cc2cn(CC(=O)c3ccccc3)nn2)C2=CC(=O)c3ccccc3C2=O)cc1 was tested, and the IC50 was 14 µM, the IC90 was 28.9 µM and the MIC was 50 µM. CC[C@@H](CO)NCCN[C@@H](CC)CO [ETHAMBUTOL] showed an IC50 of less than 1.56 µM and an MIC of 12.5 µM. Work on Cc1ccc(N(Cc2cn(-c3cc4ccccc4oc3=N)nn2)C2=CC(=O)c3ccccc3C2=O)c(C)c1 yielded an IC50 of 21.6 µM, an IC90 of 55.1 µM and an MIC of 100 µM. Work on O=C1C=C(N(Cc2cn(C3=CC(=O)c4ccccc4C3=O)nn2)c2ccc(Cl)cc2)C(=O)c2ccccc21 yielded an IC50 of 7.2 µM, an IC90 of 16.5 µM and an MIC of 25 µM. Cc1ccccc1N(Cc1cn(CC(=O)c2ccccc2)nn1)C1=CC(=O)c2ccccc2C1=O was tested, and the IC50 was 19.1 µM, the IC90 was 37.9 µM and the MIC was 50 µM. In the case of O=C1C=C(N(Cc2cn(Cc3ccccc3)nn2)c2ccc(Cl)cc2)C(=O)c2ccccc21, the IC50 is reported as 2.58 µM, the IC90 is reported as 15.1 µM and the MIC is reported as 25 µM. For N#CCn1cc(CN(C2=CC(=O)c3ccccc3C2=O)c2ccccc2Cl)nn1, the IC50 was 11.2 µM, the IC90 was 25.9 µM and the MIC was 50 µM. O=C1C=C(N(Cc2cn(Cc3ccccc3)nn2)c2ccc(C(F)(F)F)cc2)C(=O)c2ccccc21 gave an IC50 of 1.87 µM, an IC90 of 4.6 µM and an MIC of 10 µM. Compound O=C1C=C(N(Cc2cn(C3=CC(=O)c4ccccc4C3=O)nn2)c2ccc(Br)cc2)C(=O)c2ccccc21 has an IC50 of 19.2 µM, an IC90 of 46.5 µM and an MIC of 50 µM. O=C(Cn1cc(CN(C2=CC(=O)c3ccccc3C2=O)c2ccc(Cl)cc2Cl)nn1)c1ccccc1 showed an IC50 of 13.3 µM, an IC90 of 27.9 µM and an MIC of 50 µM. Work on Cc1ccccc1N(Cc1cn(CC#N)nn1)C1=CC(=O)c2ccccc2C1=O yielded an IC50 of 10.6 µM, an IC90 of 19.8 µM and an MIC of 50 µM. With NNC(=O)c1ccncc1 [ISONIAZID] the IC90 was 0.29 µM and the MIC was 0.31 µM. O=C1C=C(N(Cc2cn(Cc3ccccc3)nn2)c2ccccc2Cl)C(=O)c2ccccc21 showed an IC50 of 15.3 µM, an IC90 of 44.3 µM and an MIC of 50 µM. N#CCn1cc(CN(C2=CC(=O)c3ccccc3C2=O)c2ccccc2)nn1 was tested, and the IC50 was 9.95 µM, the IC90 was 21.9 µM and the MIC was 25 µM. In the case of N=c1oc2ccc(Cl)cc2cc1-n1cc(CN(C2=CC(=O)c3ccccc3C2=O)c2ccc(F)cc2)nn1, the IC50 is reported as 3.18 µM, the IC90 is reported as 9.86 µM and the MIC is reported as 25 µM. C=CCn1cc(CN(C2=CC(=O)c3ccccc3C2=O)c2ccc(F)cc2)nn1 was tested, and the IC50 was 5.87 µM, the IC90 was 14.6 µM and the MIC was 25 µM. O=C1C=C(N(Cc2cn(Cc3ccccc3)nn2)c2ccc(Cl)cc2Cl)C(=O)c2ccccc21 was tested, and the IC50 was 5.38 µM, the IC90 was 9.97 µM and the MIC was 25 µM. Compound C=CCn1cc(CN(C2=CC(=O)c3ccccc3C2=O)c2ccccc2)nn1 has an IC50 of 25.5 µM, an IC90 of 55.4 µM and an MIC of 100 µM. For CCOC(=O)Cn1cc(CN(C2=CC(=O)c3ccccc3C2=O)c2ccc(F)cc2)nn1, the IC50 was 17.2 µM, the IC90 was 36.5 µM and the MIC was 50 µM. Work on Cc1ccc(N(Cc2cn(C3=CC(=O)c4ccccc4C3=O)nn2)C2=CC(=O)c3ccccc3C2=O)cc1 yielded an IC50 of 28.6 µM, an IC90 of 37.7 µM and an MIC of 50 µM. Compound N=c1oc2ccccc2cc1-n1cc(CN(C2=CC(=O)c3ccccc3C2=O)c2ccccc2Cl)nn1 has an IC50 of 27.2 µM, an IC90 of 36.5 µM and an MIC of 50 µM. C=CCn1cc(CN(C2=CC(=O)c3ccccc3C2=O)c2ccccc2Cl)nn1 showed an IC50 of 6.38 µM, an IC90 of 12 µM and an MIC of 25 µM. Compound Cc1ccc(N(Cc2cn(-c3cc4ccccc4oc3=N)nn2)C2=CC(=O)c3ccccc3C2=O)cc1 has an IC50 of 23.9 µM, an IC90 of 47.6 µM and an MIC of 50 µM. N[C@@H]1CONC1=O [CYCLOSERINE] gave an MIC of 25 µM. CCOC(=O)Cn1cc(CN(C2=CC(=O)c3ccccc3C2=O)c2cccc(OC)c2)nn1 was tested, and the IC50 was 18.6 µM, the IC90 was 27.7 µM and the MIC was 50 µM. With CCOC(=O)Cn1cc(CN(C2=CC(=O)c3ccccc3C2=O)c2ccc(Br)cc2)nn1 the IC50 was 8.46 µM, the IC90 was 16.4 µM and the MIC was 25 µM. Cc1ccc2oc(=N)c(-n3cc(CN(C4=CC(=O)c5ccccc5C4=O)c4ccccc4)nn3)cc2c1 showed an IC50 of 18.6 µM, an IC90 of 27.7 µM and an MIC of 50 µM. C=CCn1cc(CN(C2=CC(=O)c3ccccc3C2=O)c2ccc(Cl)cc2)nn1 gave an IC50 of 21.6 µM, an IC90 of 45.1 µM and an MIC of 50 µM.

The compounds below were run on Mycobacterium tuberculosis (assay: Ratio of pyrimethamine IC50 to compound IC50 for Mycobacterium tuberculosis H37Rv assessed as growth inhibition by microdilution AlamarBlue broth assay).
Assay type: functional
O=C1C=C(N(Cc2cn(Cc3ccccc3)nn2)c2ccc(C(F)(F)F)cc2)C(=O)c2ccccc21 was tested, and the “Ratio IC50” value was 20.

Each compound was assayed on Mycobacterium tuberculosis (assay: Ratio of cycloserine IC50 to compound IC50 for Mycobacterium tuberculosis H37Rv assessed as growth inhibition by microdilution AlamarBlue broth assay).
Assay type: functional
For O=C1C=C(N(Cc2cn(Cc3ccccc3)nn2)c2ccc(C(F)(F)F)cc2)C(=O)c2ccccc21, the “Ratio IC50” value was 6.
